{
  "source": "patent US20190175601A1",
  "about": "“COMPOSITION FOR INHIBITING OR ALLEVIATING ITCHING INCLUDING RIBOFLAVIN” (INDUSTRY-UNIVERSITY COOPERATION FOUNDATION HANYANG …, priority 2016, published 2019)",
  "key": {"[1]": {"system": "histamine-induced itching", "assay": "Histamine-induced itching animal behavioral test, preparation for transdermal administration", "format": "in vivo, male C57BL/6 mice", "experimental": "An effect of inhibiting or alleviating itching was tested using the preparation for transdermal administration prepared according to Preparation Example 2. For the test, an animal behavioral experiment was carried out in the same manner as in Experimental Example 1.\nIn particular, 30 minutes before 100 μg/50 μl of histamine was injected, the preparation for transdermal administration was applied on the skin, and then the preparation was removed 5 minutes before histamine was injected."}, "[2]": {"system": "spinal cord dorsal root ganglion cells", "assay": "Histamine-induced current, membrane voltage clamp method", "format": "cell-based", "settings": "primary cultured mouse dorsal root ganglion cells, FIG. 4", "experimental": "In addition, to confirm an effect of riboflavin on blocking histamine-induced peripheral nerve activity, it was examined using a membrane voltage clamp method whether a histamine-induced current was inhibited by riboflavin.\nTo this end, spinal cord dorsal root ganglion cells of each mouse were isolated and primarily cultured, and then electrophysiological characteristics of the spinal cord dorsal root ganglion cells were recorded using the membrane voltage clamp method."}, "[3]": {"system": "histamine-induced itching", "assay": "Histamine-induced itching animal behavioral test, local intradermal injection co-administered with histamine", "format": "in vivo, male C57BL/6 mice", "settings": "1 μM/50 μl intradermal, at the same time as histamine 100 μg/site; FIG. 2", "experimental": "An effect of inhibiting or alleviating itching was tested using the local intradermal injection prepared according to Preparation Example 1.\nThe test was carried out in the same manner as in Experimental Example 1, except for the following. For the itching-induced animal behavioral model test, 1 μM/50 μl of the local intradermal injection prepared according to Preparation Example 1 was injected intradermally into the back of the neck of each mouse. In addition, upon administration of the preparation, 50 μl (100 μg/site) of histamine was injected intradermally at the same time."}, "TRPV1": {"target": "T1, TRPV1 (Homo sapiens, UniProt Q8NER1)", "T1 construct": "expressed in transfected cells; host or cells: HEK 293 cells", "T1 sequence (Q8NER1 whole entry, species assumed)": "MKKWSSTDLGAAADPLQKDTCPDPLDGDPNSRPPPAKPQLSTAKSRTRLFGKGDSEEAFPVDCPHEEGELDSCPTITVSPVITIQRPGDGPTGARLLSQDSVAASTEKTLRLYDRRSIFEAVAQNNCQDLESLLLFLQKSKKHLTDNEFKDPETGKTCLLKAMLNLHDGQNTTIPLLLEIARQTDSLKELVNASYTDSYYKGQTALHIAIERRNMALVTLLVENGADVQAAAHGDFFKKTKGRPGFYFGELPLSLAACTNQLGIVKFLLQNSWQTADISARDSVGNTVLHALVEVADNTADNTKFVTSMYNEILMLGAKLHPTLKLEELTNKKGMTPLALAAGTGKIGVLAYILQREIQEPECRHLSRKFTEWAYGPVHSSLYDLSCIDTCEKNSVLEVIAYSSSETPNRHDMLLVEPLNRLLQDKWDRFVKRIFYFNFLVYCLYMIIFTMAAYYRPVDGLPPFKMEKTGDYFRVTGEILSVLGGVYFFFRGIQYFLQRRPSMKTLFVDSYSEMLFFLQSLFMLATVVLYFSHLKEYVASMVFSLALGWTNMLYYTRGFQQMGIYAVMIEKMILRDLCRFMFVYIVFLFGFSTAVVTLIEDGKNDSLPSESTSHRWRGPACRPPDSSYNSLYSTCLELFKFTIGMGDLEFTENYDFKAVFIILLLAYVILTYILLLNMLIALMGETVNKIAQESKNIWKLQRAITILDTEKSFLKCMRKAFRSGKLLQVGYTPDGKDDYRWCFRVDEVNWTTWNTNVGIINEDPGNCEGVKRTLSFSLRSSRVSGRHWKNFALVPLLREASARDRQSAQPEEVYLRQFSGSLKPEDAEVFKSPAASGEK", "assay": "Capsaicin current blocking in TRPV1-expressing HEK293 cells", "format": "cell-based", "settings": "TRPV1-expressing HEK 293 cells", "excerpt": "TRPV1 was expressed in HEK 293 cells to carry out a capsaicin current blocking experiment. Under these conditions, riboflavin excluded other channels and a direct effect of riboflavin was examined. The results are illustrated in FIG. 5. FIG. 5 illustrates results of confirming that a capsaicin-induced current was inhibited by riboflavin."}, "[4]": {"system": "histamine-induced itching", "assay": "Histamine-induced itching animal behavioral test, preparations for oral administration", "format": "in vivo, male C57BL/6 mice", "settings": "FIG. 1", "experimental": "An effect of inhibiting or alleviating itching was tested using the preparations for oral administration prepared according to Preparation Example 1. For the test, an animal behavioral test was performed using the mouse model disclosed in Non-Patent Document 6.\nGroups each including 10 male C57BL/6 mice weighing 20 g to 23 g were used in the test. These groups were accommodated under control of a temperature of 23° C. to 25° C. The mice were freely fed food and water. For the itching-induced animal behavioral model test, the mice were orally administered the preparations for oral administration having different concentrations of riboflavin, which were prepared according to Preparation Example 1 (100 mg/kg, 300 mg/kg, or 600 mg/kg). In addition, the mice were treated with the control prepared according to Preparation Example 1.\nTo induce scratching, histamine, which is known to cause an itching sensation in humans, was used. At this time, histamine was dissolved in sterile physiological saline. 30 minutes after administration of the preparations for oral administration, 50 μl (500 μg/site) of histamine was injected intradermally into the back of the neck of each mouse.\nThe results were analyzed by calculating the mean and standard deviation, and a statistical difference of mean values was determined using a Student's t-test."}, "[5]": {"system": "skin-afferent nerve tissue", "assay": "Histamine-induced peripheral nerve activity in preserved skin-afferent nerve tissue", "settings": "histamine administered to the sole of the foot; FIG. 3", "experimental": "Histamine-induced itching is known to occur through peripheral nerve excitation. In the present experimental example, it was examined whether histamine-induced peripheral nerve activity was blocked by riboflavin.\nAfter securing preserved skin-afferent nerve tissue, histamine was administered to the sole of the foot to confirm nerve activity, and such histamine-induced nerve activity was blocked by riboflavin (see FIG. 3)."}},
  "data": [
    {"smiles": "Cc1cc2nc3c(=O)[nH]c(=O)nc-3n(C[C@H](O)[C@H](O)[C@H](O)CO)c2cc1N(C)C", "note": "[roseoflavin, 8-demethyl-8-(dimethylamino)-riboflavin]", "values": [
      {"measurement": "histamine-induced itching responses", "setting": "[1]; 1 mM in Vaseline cream on skin 30 minutes before histamine 100 μg/50 μl, removed 5 minutes before, observed 30 minutes, FIG. 8", "result": "itching responses were reduced"},
      {"measurement": "itching behavioral responses (number of times)", "setting": "[1]; 1 mM transdermal preparation, control 142 times, 30 minutes", "result": 60, "unit": "times"}
    ]},
    {"smiles": "Cc1cc2nc3c(=O)[nH]c(=O)nc-3n(C[C@H](O)[C@H](O)[C@H](O)CO)c2cc1C", "note": "[riboflavin]", "values": [
      {"measurement": "histamine-induced inward current", "setting": "[2]", "result": "the current is blocked"},
      {"measurement": "histamine-induced itching responses (number of scratches)", "setting": "[3]", "result": "itching responses were reduced"},
      {"measurement": "capsaicin-induced current blocking effect at 100 nM", "setting": "TRPV1; 100 nM", "result": "did not effectively block TRPV1"},
      {"measurement": "capsaicin-induced current blocking effect", "setting": "TRPV1; several concentrations, FIG. 5", "result": "statistically significant effect of blocking channels in a concentration-dependent manner"},
      {"measurement": "dose dependence of effect on inhibiting histamine-induced itching", "setting": "[4]; oral 100, 300, 600 mg/kg", "result": "dose-dependent pattern"},
      {"measurement": "histamine-induced itching responses (number of scratches)", "setting": "[4]; oral 100, 300 or 600 mg/kg, 30 minutes before histamine 500 μg/site intradermal, observed 30 minutes", "result": "itching responses were reduced"},
      {"measurement": "histamine-induced nerve activity", "setting": "[5]", "result": "blocked"}
    ]}
  ]
}
